# Reference: US6596766B1, “Utilization of material containing docosapentaenoic acid” (Suntory Limited, priority 1999, dated 2003)
# Experiment: Fatty acid composition in the livers of rats fed DHA-containing oil (Example 2)
# Type: in vivo, Wistar rats
# Conditions: rat liver, versus control group
# Source text: Four-week-old male Wistar rats were initially raised for one week, and then divided into 2 groups described below.
# perilla oil: safflower oil=7:3
# rapeseed oil: DHA ethyl ester=3:2
# For 4 weeks, the rats were fed experimental diets prepared by mixing 5% of the indicated oils for each of the groups to the basal feed.
# The livers were excised from the raised rats of both groups, and lipids were extracted by the Folch method and upon conversion to the methyl ester, the amount of each fatty acid was analyzed by gas chromatography.
structure (smiles),measurement,value
"CCC=CCC=CCC=CCC=CCC=CCC=CCCC(=O)O [DHA, 4,7, 10, 13, 16, 19-docosahexaenoic acid]",effect on the proportion of ARA in the liver (in words),significant decrease in the proportion of ARA
